Reference: patent US6403594B1, “Benzopyran derivatives” (Recordati, S.A. Chemical and Pharmaceutical Company, priority 1999, dated 2002)
pKi: −log10 of the molar value.

Columns and labels:
[1] = biological target: T1, α1b-adrenoceptor (recombinant) (Homo sapiens, UniProt P35368); experiment: Radioligand binding, cloned α1b-adrenoceptor ([3H]prazosin); conditions: read-out: Affinity for recombinant α1b-adrenoceptor, cloned receptors (Ki)
T1 construct: expressed in transfected cells
T1 sequence (P35368 1-520): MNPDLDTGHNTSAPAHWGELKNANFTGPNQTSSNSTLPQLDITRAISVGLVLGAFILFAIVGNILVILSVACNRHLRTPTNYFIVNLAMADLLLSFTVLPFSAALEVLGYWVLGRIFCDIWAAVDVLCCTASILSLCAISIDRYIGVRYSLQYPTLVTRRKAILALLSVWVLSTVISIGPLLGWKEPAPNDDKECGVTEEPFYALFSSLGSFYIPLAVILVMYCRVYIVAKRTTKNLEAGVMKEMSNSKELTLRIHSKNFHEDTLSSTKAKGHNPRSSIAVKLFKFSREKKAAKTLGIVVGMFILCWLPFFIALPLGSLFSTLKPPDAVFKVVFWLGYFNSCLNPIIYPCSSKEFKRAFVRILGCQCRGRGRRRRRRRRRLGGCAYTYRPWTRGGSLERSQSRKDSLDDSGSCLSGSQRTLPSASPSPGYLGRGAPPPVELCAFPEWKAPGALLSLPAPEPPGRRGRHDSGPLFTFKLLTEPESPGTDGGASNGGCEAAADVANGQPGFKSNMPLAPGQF

α1L adrenoceptor = biological target: T2, α1L adrenoceptor (Oryctolagus cuniculus, UniProt O02824); experiment: Functional antagonism of noradrenaline-induced contractions of rabbit aorta pretreated with chloroethylclonidine; type: biochemical; conditions: NA-induced contractions of rabbit aorta pretreated with chloroethylclonidine
T2 sequence (O02824 1-466): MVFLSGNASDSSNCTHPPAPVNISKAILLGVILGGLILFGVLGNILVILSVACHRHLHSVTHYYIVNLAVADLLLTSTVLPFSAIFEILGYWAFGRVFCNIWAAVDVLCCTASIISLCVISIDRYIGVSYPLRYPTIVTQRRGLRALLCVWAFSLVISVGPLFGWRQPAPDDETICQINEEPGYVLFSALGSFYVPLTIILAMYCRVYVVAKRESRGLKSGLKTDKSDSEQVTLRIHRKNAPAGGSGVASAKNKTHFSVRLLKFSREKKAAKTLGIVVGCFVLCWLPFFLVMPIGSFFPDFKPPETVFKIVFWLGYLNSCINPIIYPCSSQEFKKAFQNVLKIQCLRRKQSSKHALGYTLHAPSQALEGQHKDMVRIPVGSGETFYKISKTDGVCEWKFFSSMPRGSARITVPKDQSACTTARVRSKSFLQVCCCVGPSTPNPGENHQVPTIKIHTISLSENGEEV
Experimental: Adult male New Zealand rabbits were sacrificed by cervical dislocation. The aorta was removed, placed in Krebs-Henseleit buffer and dissected free of adhering tissue. […] Desmethylimipramine (0.1 μm) and corticosterone (1 μM) to block neuronal and extraneuronal uptake of NA, (±)-propranol (1 μM) to block β adrenoceptors and yohimbine (0.1 μM) to block α2 adrenoceptors, were added to the buffer.
The preparations were allowed to equilibrate for 60 minutes and then primed every thirty minutes with 10 μM NA for three times. The aortic rings were then incubated with the alkylating agent chloroethylclonidine (5×10^−5 M) for 30 minutes and then washed extensively three times (in 0.5 hours) before constructing the NA-concentration/response curve. After washout of NA and re-equilibration of the tissue (45 minutes), the drug to be tested was added and, after 30 minutes, a second NA-cumulative-concentration/response curve constructed.
Each antagonist concentration was tested using 2-3 aortic rings from different rabbits.
Dose ratios (i.e., the ratio between the concentrations of NA required to produce half-maximal response in the presence and in the absence of the test antagonist) were calculated for each concentration of the compounds. The logarithm of these dose ratio-1 was plotted against the logarithm of the compound concentrations (Schild plot) to evaluate the affinity constant Kb.
When only one or two concentrations of the test compounds were utilised, the apparent Kb value was calculated using the formula: Kb=[B]/(DOSE RATIO-1), where B is the antagonist concentration.

[2] = test system: prostatic urethral pressure increase induced by noradrenaline; experiment: Inhibition of urethral contractions induced by noradrenaline in anaesthetised dogs after i.v. administration; type: in vivo, dog; conditions: for UC ID50: active dose inhibiting by 50% the urethral contractions induced by noradrenaline: i.v. administration; for DBP/UC ratio between the active doses: i.v., DBP ED25 / UC ID50
Experimental: The experiments were performed according to the method of Imagawa J. et al., J. Pharmacol. Methods 22: 103-111, 1989, with substantial modifications, as follows: adult male beagle dogs, weighing 8-10 kg, were anaesthetised with pentobarbital sodium (30 mg/kg i.v. and 2 mg/kg/h i.v.), intubated and spontaneously ventilated with room air. In order to monitor systemic blood pressure (BP), a polyethylene (PE) catheter was introduced into the aortic arch through the left femoral artery. A collateral of the left femoral vein was cannulated for infusion of anaesthetic, and the right femoral vein was cannulated for administration of compounds. For intra-arterial (i.a.) injection of noradrenaline (NA), a PE catheter was introduced into the lower portion of the abdominal aorta via the right external iliac artery. Through such procedure, NA was selectively distributed to the lower urinary tract. A paramedian vertical suprapubic incision extending from the base of the pelvis to the mid-abdominal region was made and the bladder and prostate were exposed. The bladder was manually emptied with a syringe. Prostatic urethral pressure was monitored with a Mikro-tip catheter (5F) introduced into the bladder via the external urethral meatus, and withdrawn until the pressure transducer was positioned in the prostatic region of the urethra. A ligature was secured between the neck of the bladder and urethra to isolate the response of the latter and to avoid any interaction with the bladder. Another ligature was put around the Mikro-tip catheter at the external meatus, to secure the catheter itself. After a stabilising period following the surgical procedure (30 minutes), in which arterial and prostatic urethral pressure were continuously monitored as basal values, i.a. administration of NA was made at intervals of 20 minutes. The doses of NA chosen were such to produce an increase of at least 100% in urethral pressure. The test compounds were administered i.v. in a cumulative manner with intervals of 15-20 minutes between administrations. I.a. injections of NA were repeated 5 minutes after every dosing of test compound with intervals of about 10 minutes between stimulations. In order to compare the effects of the administered compound, dose/response curves (log dose transformation) were constructed by computing, at the peak effect, the percent decrease in diastolic blood pressure and the percent inhibition of the increase in urethral pressure induced by NA.

Row | Structure (SMILES) | pKi [1] | Functional affinity for the α1L adrenoceptor subtype, pKb (α1L adrenoceptor) | UC ID50: active dose inhibiting by 50% the urethral contractions induced by noradrenaline [2] | DBP/UC ratio between the active doses [2]
1 | COc1ccc(Cl)cc1N1CCN(CCCNC(=O)c2cccc3c(=O)c(C)c(C(N)=O)oc23)CC1 [Example 1, 2-Carbamoyl-8-{3-[4-(5-chloro-2-methoxyphenyl)-1-piperazinyl]-propylcarbamoyl}-3-methyl-4-oxo-4H-1-benzopyran] | 8.58 | 8.27 | 11.8 µg/kg | 234.7
2 | CCOC(=O)c1oc2c(C(=O)NCCCN3CCN(c4cc(Cl)ccc4OC)CC3)cccc2c(=O)c1C [Example 4, 2-Ethoxycarbonyl-8-{3-[4-(5-chloro-2-methoxyphenyl)-1-piperazinyl]-propylcarbamoyl}-3-methyl-4-oxo-4H-1-benzopyran] | 10.10 | 8.47 | 2.3 µg/kg | 71.0
